Data published in patent US6379697B1, “Stabilization of photosensitive materials” (The Secretary of State for Defence in Her Britannic …, priority 1994, dated 2002).
Read-outs that look alike come from different tables or passages of the source.

Assay: Photodegradation of riboflavin preparations under UV irradiation (254/365 nm), first order kinetics
Type: physicochemical
Conditions: for half-life: aqueous solution of free riboflavin under UV irradiation
Experimental: At time intervals a known amount of the solution or suspension was diluted with double distilled water and the absorbance or fluorescence measured.
In the case of the liposome suspensions liposomal pellets were produced, solubilised with a 10% solution of Triton-X-100 (RTM) and then diluted and measured. The entrapment and degradation of riboflavin was calculated from the absorbance readings at 444 nm, absorbance at this wavelength not interfering with the absorbance of Triton-X-100.
The photodegradation of riboflavin caused by UV irradiation follows first order kinetics and is given by the following equation: […]
where C0 is the initial concentration of riboflavin, C is the concentration of riboflavin after t min of irradiation and k is the first order photodegradation rate constant.
The graphic representation of Equation (2) is linear and the slope of the line gives the photodegradation rate constant k.
The increase in stability was expressed by the stabilization ratio. (k0/k), where k0 is the photodegradation constant of free riboflavin in aqueous solution and k the photodegradation rate constant of the various preparations.
Riboflavin gamma-cyclodextrin inclusion complexes were entrapped in DRV incorporating a light absorbing agent or antioxidant in their lipid phase selected from: oil Red 0, oxybenzone, deoxybenzone and beta-carotene or combinations thereof. […] As in the previous examples this degradation followed first order kinetics represented by the equations given earlier.
In order to determine the extent of this reduction and to determine whether during the photodegradation of riboflavin the same concentration of oil Red 0 caused different reductions in fluorescence, solutions containing known amounts of riboflavin and oil Red 0 solubilised in water using Triton-X-100 were prepared and their fluorescence measured.

half-life (aqueous solution, irradiation, read-out: half life of riboflavin in aqueous solution on irradiation): ~30 min
half-life (free riboflavin, UV irradiation, read-out: half life of riboflavin): 30 min
rate of decomposition of riboflavin in aqueous solution on irradiation (aqueous solution, irradiation): 0.024 min⁻¹
k × 10^3, rate constant for the photodegradation of riboflavin (values are k × 10^3, UV lamp 254/365 nm, 3 cm, 24° C.): 24(k °) min^−1
Structure (SMILES): Cc1cc2nc3c(=O)[nH]c(=O)nc-3n(C[C@H](O)[C@H](O)[C@H](O)CO)c2cc1C [Riboflavin, riboflavin]
